Data reported in patent US8158657B2, “Heterocycles substituted pyridine derivatives and antifungal agent containing thereof” (Eisai R&D Management Co., Ltd., priority 2005, dated 2012).
≈ marks a conversion by molar mass, not a printed value.

Legend:
[1] = system: C. albicans CAF2-1 strain; assay: Anti-Candida activity, MIC measurement; assay type: cell-based; details: CAF21STRAIN, C. albicans CAF2-1, RPMI1640, 42-48 hours at 35° C., visual inspection, read-out: Anti-Candida Activity (minimum inhibitory concentration, MIC)
Method in brief: (§1)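 C. albicans CAF2-1 was grown 48 h at 30° C. in SDB and diluted in RPMI1640 to 1.2×10^3 cells/mL. Frozen A. fumigatus Tsukuba was diluted to 4.5×10^3 cells/mL. Compounds, two-fold serially diluted in DMSO from 2.5 mg/mL, were cultured aerobically with fungi for 42-48 h at 35° C.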

[2] = system: A. fumigatus Tsukuba strain; assay: Anti-Aspergillus activity, MIC measurement; assay type: cell-based; details: RPMI1640, 42-48 hours at 35° C., visual inspection, read-out: Anti-Aspergillus Activity (minimum inhibitory concentration, MIC)
Method in brief: as §1

[3] = system: C. albicans E81022 strain; assay: Experimental systemic candidal infection model in mice; assay type: in vivo; details: peroral, 3 times every 4 hours, female ICR mice, observed until 14 days after infection
Protocol: A standing culture of C. albicans E81022 strain was carried out for 48 hours at 30° C. in sabouraud dextrose agar medium (SDA), the recovered fungal cells were suspended in sterilized physiological saline. By counting the fungal number on cytometry plate, the suspension was diluted to 2×10^7 cells/mL with sterilized physiological saline to serve fungal inoculum.
The fungal inoculum was used in the amounts of 0.2 mL to inoculate 4.5 to 5.5 week-old female ICR mice in the tail vein (4×10^6 cells/mouse).
From 0.5 to 1 hour after fungal inoculation, 0.2 mL of agent solution (dissolved or suspended in sterilized physiological saline containing 6.5% dimethyl sulfoxide and 3.5% Tween 80) was administered into the stomach using a peroral probe, 3 times every 4 hours. The agent concentration was 2.5 mg/kg or 10 mg/kg, and the number of animals in one group was 5 animals.
The protective effect was determined by observing life/death until 14 days after infection and calculating the mean survival days.

SMILES	MIC [1] [µg/mL]	MIC [2] [µg/mL]	Mean Survival Days ([3]; 2.5 mg/kg) [days]	Mean Survival Days ([3]; 10 mg/kg) [days]
Nc1ccc(-c2cc(Cc3ccc(OCc4ccccc4)cc3)no2)c(N)n1 [Example 13, 3-(3-(4-Benzyloxy-benzyl)-isoxazol-5-yl)-pyridin-2,6-diamine]	0.2 (≈ 0.537 µM)	0.1 (≈ 0.269 µM)	13.8	14.0
Nc1ncccc1-c1cc(Cc2ccc(COc3ccccn3)cc2)on1 [Example 30, 3-(5-(4-(Pyridin-2-yloxymethyl)-benzyl)-isoxazol-3-yl)-pyridin-2-ylamine]	0.1 (≈ 0.279 µM)	0.2 (≈ 0.558 µM)	13.0	–
Nc1ccc(-c2cc(Cc3ccc(Oc4ccccc4)nc3)no2)c(N)n1 [Example 40, 3-(3-(6-Phenoxy-pyridin-3-ylmethyl)-isoxazol-5-yl)-pyridin-2,6-diamine]	0.39 (≈ 1.09 µM)	0.39 (≈ 1.09 µM)	11.6	14.0
Nc1ccc(-c2cc(Cc3ccc(Oc4cccc(F)c4)nc3)no2)c(N)n1 [Example 131, 3-(3-(6-(3-Fluoro-phenoxy)-pyridin-3-ylmethyl)-isoxazol-5-yl)-pyridin-2,6-diamine]	0.2 (≈ 0.53 µM)	0.2 (≈ 0.53 µM)	12.6	12.8
Nc1ncccc1-c1cnn(Cc2ccc(OCc3ccccc3)cc2)c1 [Example 31, 3-(1-(4-Benzyloxy-benzyl)-1H-pyrazol-4-yl)-pyridin-2-ylamine]	0.2 (≈ 0.561 µM)	0.39 (≈ 1.09 µM)	–	13.0
Nc1ncccc1-c1cc(Cc2ccc(OCc3ccc(F)cc3)nc2)no1 [Example 58, 3-(3-(6-(4-Fluoro-benzyloxy)-pyridin-3-ylmethyl)-isoxazol-5-yl)-pyridin-2-ylamine]	0.78 (≈ 2.07 µM)	0.1 (≈ 0.266 µM)	3.8	12.0
Cc1cccc(OCc2ccc(Cc3cc(-c4ccc(N)nc4N)on3)cc2)n1 [Example 15, 3-(3-(4-(6-Methyl-pyridin-2-yloxymethyl)-benzyl)-isoxazol-5-yl)-pyridin-2,6-diamine]	0.2 (≈ 0.516 µM)	0.39 (≈ 1.01 µM)	10.8	12.6
Nc1ccc(-c2cc(Cc3ccc(COc4ccccc4)nc3)no2)c(N)n1 [Example 111, 3-(3-(6-Phenoxymethyl-pyridin-3-ylmethyl)-isoxazol-5-yl)-pyridin-2,6-diamine]	0.39 (≈ 1.04 µM)	0.78 (≈ 2.09 µM)	13.6	–
Nc1ncccc1-c1cc(Cc2ccc(COc3ccccn3)cc2)no1 [Example 2, 3-(3-(4-(Pyridin-2-yloxymethyl)-benzyl)-isoxazol-5-yl)-pyridin-2-ylamine]	0.05 (≈ 0.14 µM)	0.2 (≈ 0.558 µM)	13.2	14.0
Nc1ccc(-c2cc(Cc3ccc(OCc4cccc(F)n4)cc3)no2)c(N)n1 [Example 104, 3-(3-(4-(6-Fluoro-pyridin-2-ylmethoxy)-benzyl)-isoxazol-5-yl)-pyridin-2,6-diamine]	0.78 (≈ 1.99 µM)	0.78 (≈ 1.99 µM)	8.2	13.2
Nc1ccc(-c2cc(Cc3ccc(CNc4ccccc4)cc3)no2)c(N)n1 [Example 133, 3-(3-(4-Phenylaminomethyl-benzyl)-isoxazol-5-yl)-pyridin-2,6-diamine]	0.2 (≈ 0.538 µM)	0.39 (≈ 1.05 µM)	7.0	13.4
Nc1ccc(-c2cc(Cc3ccc(OCc4cc(Cl)ccn4)cc3)no2)c(N)n1 [Example 109, 3-(3-(4-(4-Chloro-pyridin-2-ylmethoxy)-benzyl)-isoxazol-5-yl)-pyridin-2,6-diamine]	0.39 (≈ 0.956 µM)	0.78 (≈ 1.91 µM)	11.0	11.8
Cc1ccnc(OCc2ccc(Cc3cc(-c4cccnc4N)on3)cc2)c1 [Example 43, 3-(3-(4-(4-Methyl-pyridin-2-yloxymethyl)-benzyl)-isoxazol-5-yl)-pyridin-2-ylamine]	0.2 (≈ 0.537 µM)	0.39 (≈ 1.05 µM)	10.6	14.0
Nc1ccc(-c2cc(Cc3ccc(Oc4ccc(F)cc4)nc3)no2)c(N)n1 [Example 135, 3-(3-(6-(4-Fluoro-phenoxy)-pyridin-3-ylmethyl)-isoxazol-5-yl)-pyridin-2,6-diamine]	0.78 (≈ 2.07 µM)	0.39 (≈ 1.03 µM)	11.0	13.4
Nc1ncccc1-c1cc(Cc2ccc(OCc3cccc(F)n3)cc2)no1 [Example 45, 3-(3-(4-(6-Fluoro-pyridin-2-ylmethoxy)-benzyl)-isoxazol-5-yl)-pyridin-2-ylamine]	0.39 (≈ 1.04 µM)	0.2 (≈ 0.531 µM)	10.6	10.8
Nc1ccc(-c2cc(Cc3ccc(OCc4nccs4)cc3)no2)c(N)n1 [Example 151, 3-(3-(4-(Thiazol-2-ylmethoxy)-benzyl)-isoxazol-5-yl)-pyridin-2,6-diamine]	0.78 (≈ 2.06 µM)	0.39 (≈ 1.03 µM)	7.0	14.0
Nc1ccc(-c2cc(Cc3ccc(Oc4ccc(F)cc4)s3)no2)c(N)n1 [Example 155]	0.1 (≈ 0.261 µM)	0.1 (≈ 0.261 µM)	10.4	13.0
COCc1ccc(-c2cc(Cc3ccc(OCc4ccccn4)cc3)no2)c(N)n1 [Example 166, 6-Methoxymethyl-3-(3-(4-(pyridin-2-ylmethoxy)-benzyl)-isoxazol-5-yl)pyridin-2-ylamine]	0.39 (≈ 0.969 µM)	0.78 (≈ 1.94 µM)	3.4	12.4
